According to patent US8372654B2, “Method for investigating the fate of a test compound or the stateof a biological system by means of NMR of hyperpolarised NMR active nuclei” (GE Healthcare Limited, priority 2001, dated 2013):

Columns and labels:
[1] = benzoic acid metabolism study: iv administration to anaesthetised rats, urine collected; type: in vivo, rat
[2] = rat, in vivo, iv, 20 mg/kg
Protocol: (U-^13C)Paracetamol was administered intravenously at 20 mg/kg (at 0 and 3 hrs) to 4 anaesthetised rats, urine was collected from canulated urethra and bile was collected from canulated bile duct (2 rats only) at 0-3 and 3-6 hours. Bile (3-6 hrs) was extracted with dichloromethane and then fractionated by RP-hplc (C18 Kromasil, 25×1 cm, 5 um) using gradient elution with formic acid in water and formic acid in methanol).
Several metabolites were collected. […] The isolated material was then dried and an aliquot re-analysed by RP hplc indicating a peak purity of 96.7%, monitored by on-line UV detection (at 254 nm) and gave the expected (M+H)+ ion at 240 mass units by on-line electrospray ionisation mass spectrometry (EI-MS).

(^13C-carboxyl) hippuric acid
level measured in urine ([1]; rat urine, 0-2 hr collection, after iv (13C-carboxyl) benzoic acid 10 mg/Kg): approximately 5 mg/ml

(U-^13C)Paracetamol
metabolite identified in bile [2]: Paracetamol sulphate

O=[13C](O)c1ccccc1 [(^13C-carboxyl) Benzoic acid]
major metabolite in urine ([1]; rat urine after iv 10 mg/Kg at 0 and 2 hrs, isolated by SPE and RP-hplc): (^13C-carboxy) hippuric acid
